The target in assay [1] is T1, OPRM1 (Homo sapiens, UniProt P35372).
T1 construct: purchased Promega (in-house HiBiT-GPCR construct library, NanoBRET)
Nature of the assay: NanoBRET screen HiBiT-OPRM1 in HEK293. The format is binding. Here is the method:
(§1) Each tracer candidate was screened across the entire library of HiBiT-GPCR constructs using NanoBRET as the detection modality. As depicted in Figure 4A, the specificity of interactions was evaluated through decrease in BRET due to competitive displacement of a bound tracer by excess parental compound. Each tracer was analyzed for binding to each HiBiT-GPCR fusion in the absence and in the presence of competing parental compound. Briefly, HEK293 cells were transfected with HiBiT-GPCR constructs diluted into promoterless DNA to reduce expression and maximize translocation to the cell surface. Each tracer candidate was then screened at concentrations of 1 μM and 0.1 μM across cells expressing these fusions. Cells were treated for 1.5 h with tracer either alone or in the presence of 20 μM competing parental compound (i.e., control). BRET was measured upon addition of purified LgBiT and subsequent complementation with HiBiT genetically fused to a GPCR. The specificity of interactions was assessed through a decrease in BRET signal due to competitive displacement of the bound tracer. To further gauge the robustness of these interactions, the fold response over the control (i.e., BRETtracer/BRETcontrol) was calculated. We chose a 1.5-fold response, which translates to ≥7-fold signal over noise as the minimal threshold required to score an interaction as positive.
(§2) HiBiT-GPCR DNA constructs were diluted in 10 mM Tris pH 8 to a final concentration of 0.01 μg/μL, arrayed in 96-well plates and stored at −20 °C. For transfection, HEK293 cells were suspended in Opti-MEM (without phenol red) supplemented with 2% fetal bovine serum (Seradigm) and 100 units/mL penicillin–streptomycin (Gibco) at a final concentration of 220,000 cells/mL and dispensed into white 96-well plates at 90 μL/well. Subsequent transfections and screens were carried using an Agilent Bravo Automated Liquid Handling Platform. First, the 96-well HiBiT DNA arrays were diluted 25-fold in Opti-MEM (without serum or phenol red) to a final concentration of 0.0004 μg/μL and 20 μL of the diluted DNAs were transferred into new 96-well plates. Next, promoterless carrier DNA (1 μg/μL) was diluted 25-fold (0.04 μg/μL) and then dispensed into the diluted arrays at 20 μL/well. Following brief mixing, Viafect transfection reagent (Promega) diluted 16-fold into Opti-MEM was dispensed into the plates at 40 μL/well. After mixing by pipetting, plates were incubated for 10 min on the pipetting station deck. The DNA-transfection reagent complexes were then added to plates containing cells. To facilitate the screen, 10 μL of DNA-transfection reagent complexes were added in duplicates to the top 4 and bottom 4 rows, resulting in two identical 48-well arrays per plate. Plates with transfected cells were incubated for 18–20 h at 37 °C/5% CO2. A screen of each tracer across the entire library using two different concentrations requires duplicate plates of transfected cells. Depending on the number of tracers being screened, transfections can be scaled up using the same ratios. The next day, for each tracer, four 20× screening solutions in tracer dilution buffer (Promega) were prepared: two duplicates at final concentration of 20 μM and two duplicates at a final concentration of 2 μM. […] The four resulting solutions were diluted 4-fold in Opti-MEM without serum or phenol red to generate 5× solutions (5 µM and 0.5 µM tracer +/− 100 μM competing compound). To screen the library, a BioTek MultiFlo FX liquid dispenser was used to dispense 22.5 µL of tracer solution to the top 4 rows and 22.5 µL tracer + competing compound solution to the 4 bottom rows. Plates were briefly mixed on an orbital shaker and incubated for 1.5 h at room temperature. […] Plates were briefly mixed on an orbital shaker and incubated for 15 min to allow complementation.
A general note: BRET reads energy transfer from a luciferase to a nearby fluorophore.

Assay [2] concerns the target T2, AVPR1A (Homo sapiens, UniProt P37288).
T2 construct: purchased Promega (in-house HiBiT-GPCR construct library, NanoBRET)
The assay is described as follows: NanoBRET screen HiBiT-AVPR1A in HEK293. Type of assay: binding. Here is the method: as §1, §2

This is an account of results in PMC8151276, “An Integrated Approach toward NanoBRET Tracers for Analysis of GPCR Ligand Engagement” (Molecules, 2021).

T1 sequence (P35372 whole entry): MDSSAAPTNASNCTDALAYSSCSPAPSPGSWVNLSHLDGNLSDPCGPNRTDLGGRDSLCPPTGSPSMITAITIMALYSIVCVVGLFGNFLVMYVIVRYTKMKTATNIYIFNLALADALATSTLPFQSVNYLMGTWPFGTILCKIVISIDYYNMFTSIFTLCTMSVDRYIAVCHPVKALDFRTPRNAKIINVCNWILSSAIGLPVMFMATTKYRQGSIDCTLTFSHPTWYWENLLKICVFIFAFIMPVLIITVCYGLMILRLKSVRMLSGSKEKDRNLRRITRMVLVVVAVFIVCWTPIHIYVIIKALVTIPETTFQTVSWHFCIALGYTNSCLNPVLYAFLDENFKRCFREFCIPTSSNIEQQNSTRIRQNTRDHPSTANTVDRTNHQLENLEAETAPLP
T2 sequence (P37288 whole entry): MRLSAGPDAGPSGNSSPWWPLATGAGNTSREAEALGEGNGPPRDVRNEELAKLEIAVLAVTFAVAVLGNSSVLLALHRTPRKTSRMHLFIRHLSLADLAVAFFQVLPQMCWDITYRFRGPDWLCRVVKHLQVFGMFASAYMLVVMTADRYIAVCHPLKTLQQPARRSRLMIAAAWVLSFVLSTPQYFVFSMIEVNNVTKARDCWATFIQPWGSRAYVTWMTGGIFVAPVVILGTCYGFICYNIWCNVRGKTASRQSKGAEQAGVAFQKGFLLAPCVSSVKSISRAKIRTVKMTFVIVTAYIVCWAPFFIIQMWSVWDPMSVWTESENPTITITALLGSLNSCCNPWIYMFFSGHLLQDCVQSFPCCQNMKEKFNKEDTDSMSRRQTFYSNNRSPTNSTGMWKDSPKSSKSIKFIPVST

In the case of `O=C(CCc1ccc2n1[B-](F)(F)[N+]1=C(c3ccc[nH]3)C=CC1=C2)NCc1ccc(C(=O)NCCOCCC(=O)N[C@@H]2CC[C@@]3(O)[C@H]4Cc5ccc(O)c6c5[C@@]3(CCN4CC3CC3)[C@H]2O6)cc1` [Naltrexone-3-NB590], the “NanoBRET Fold Response” value in assay [1] (OPRM1, tracer 0.1μM) worked out at 1.59; in assay [1] (OPRM1, tracer 1μM), 1.31; in assay [2] (AVPR1A, tracer 0.1μM), 1.34; in assay [2] (AVPR1A, tracer 1μM) it was 0.76.
On to `CN1CCN(C2=Nc3cc(Cl)ccc3N(CC(=O)NCCOCCOCCOCCOCCNC(=O)CCc3ccc4n3[B-](F)(F)[N+]3=C(c5ccc[nH]5)C=CC3=C4)c3ccccc32)CC1` [Clozapine-c-2-NB590], for which the “NanoBRET Fold Response” value is on record as 0.98 in assay [1] (OPRM1, 0.1μM tracer); 0.94 in assay [1] (OPRM1, 1μM tracer); 0.99 in assay [2] (AVPR1A, 0.1μM tracer); 0.96 in assay [2] (AVPR1A, 1μM tracer).
The corresponding values for `O=C(CCOCCOCCOCCOCCNC(=O)CCc1ccc2n1[B-](F)(F)[N+]1=C(c3ccc[nH]3)C=CC1=C2)NCCCN1CCN(C2=Nc3cc(Cl)ccc3Nc3ccccc32)CC1` [Clozapine-a-2-NB590] are 0.98, 1.13, 0.89 and 0.99.
In the case of `CCOC(=O)c1cc(C#N)c(N2CCC(C(=O)NS(=O)(=O)Cc3ccccc3/C=C/C(=O)NCCNC(=O)CCc3ccc4n3[B-](F)(F)[N+]3=C(c5ccc[nH]5)C=CC3=C4)CC2)nc1C` [AZD1283-1-NB590], the “NanoBRET Fold Response” value in assay [1] (OPRM1, 0.1μM) is given as 1.07; in assay [1] (OPRM1, 1μM), 0.95; in assay [2] (AVPR1A, 0.1μM) it was 1.17; in assay [2] (AVPR1A, 1μM), 1.06.
For `COc1ccc2[nH]c(-c3ccc(CNC(=O)CCOCCOCCOCCOCCNC(=O)CCc4ccc5n4[B-](F)(F)[N+]4=C(c6ccc[nH]6)C=CC4=C5)cc3)c(CCNC(C)=O)c2n1` [AzomelatoninICO9-2-NB590], the “NanoBRET Fold Response” value in assay [1] (0.1μM tracer) is 0.74; in assay [1] (1μM tracer) it was 0.86; in assay [2] (0.1μM tracer) it was 0.80; in assay [2] (1μM tracer), 0.75.
Turning to `CCCn1c(=O)c2[nH]c(-c3ccc(OCC(=O)NCCNC(=O)CCOCCNC(=O)c4ccc(CNC(=O)CCc5ccc6n5[B-](F)(F)[N+]5=C(c7ccc[nH]7)C=CC5=C6)cc4)cc3)nc2n(CCC)c1=O` [XAC-3-NB590], the “NanoBRET Fold Response” value stood at 0.85 in assay [1] (OPRM1, tracer 0.1μM); 1.02 in assay [1] (OPRM1, tracer 1μM); 1.25 in assay [2] (AVPR1A, tracer 0.1μM); 1.36 in assay [2] (AVPR1A, tracer 1μM).
In the same order, the values of `COc1ccccc1N1CCN(CCCCN2C(=O)c3ccc(CNC(=O)CCOCCNC(=O)c4ccc(CNC(=O)CCc5ccc6n5[B-](F)(F)[N+]5=C(c7ccc[nH]7)C=CC5=C6)cc4)cc3C2=O)CC1` [NAN-190-3-NB590] are 1.39, 0.91, 0.90 and 0.75.
For the molecule `CN(CCC=C1c2ccccc2CCc2ccccc21)C(=O)CCOCCOCCOCCOCCNC(=O)CCc1ccc2n1[B-](F)(F)[N+]1=C(c3ccc[nH]3)C=CC1=C2` [Amitriptyline-e-2-NB590], the “NanoBRET Fold Response” value is 1.04 in assay [1] (tracer at 1μM) and 0.98 in assay [2] (tracer at 1μM).
Consider `O=C(CCc1ccc2n1[B-](F)(F)[N+]1=C(c3ccc[nH]3)C=CC1=C2)NCc1ccc(C(=O)NCCOCCOCCNCC(O)COc2cccc3ccccc23)cc1` (stereo not drawn) [Propranolol-3-NB590], for which the “NanoBRET Fold Response” value in assay [1] (OPRM1, 0.1μM) amounted to 1.02; in assay [1] (OPRM1, 1μM), 1.21; in assay [2] (AVPR1A, 0.1μM), 1.06; in assay [2] (AVPR1A, 1μM), 0.97.
Consider `COc1ccc2c(n1)c(CCNC(C)=O)cn2CCNC(=O)CCc1ccc2n1[B-](F)(F)[N+]1=C(c3ccc[nH]3)C=CC1=C2` [Azamelatonin-1-NB590], for which the “NanoBRET Fold Response” value in assay [1] (0.1μM tracer) is 1.22; in assay [1] (1μM tracer), 1.22; in assay [2] (0.1μM tracer) it was 2.27; in assay [2] (1μM tracer), 0.90.
Consider `O=C(CCOCCOCCOCCOCCNC(=O)CCc1ccc2n1[B-](F)(F)[N+]1=C(c3ccc[nH]3)C=CC1=C2)NCCCN1CCN(C2=Nc3ccccc3Oc3ccc(Cl)cc32)CC1` [Loxapine-a-2-NB590], for which the “NanoBRET Fold Response” value in assay [1] (OPRM1, tracer 0.1μM) is recorded as 1.06; in assay [1] (OPRM1, tracer 1μM), 1.06; in assay [2] (AVPR1A, tracer 0.1μM) it was 1.16; in assay [2] (AVPR1A, tracer 1μM), 0.90.
Consider `N#CN/C(=N\CCNC(=O)c1ccc(N)cc1)NCCCOc1cccc(CN2CCCCC2)c1` [Aminopotentidine (unmodified)], for which the “NanoBRET Fold Response” value in assay [1] (OPRM1, other tracers/Aminopotentidine (unmodified), 0.1μM) came out at 1.22; in assay [1] (OPRM1, other tracers/Aminopotentidine (unmodified), 1μM), 0.99.
For the molecule `COc1ccccc1N1CCN(CCCCN2C(=O)c3ccc(CNC(=O)CCOCCOCCOCCOCCNC(=O)CCc4ccc5n4[B-](F)(F)[N+]4=C(c6ccc[nH]6)C=CC4=C5)cc3C2=O)CC1` [NAN-190-2-NB590], the “NanoBRET Fold Response” value in assay [1] (OPRM1, tracer 0.1μM) stood at 0.96; in assay [1] (OPRM1, tracer 1μM), 1.10; in assay [2] (AVPR1A, tracer 0.1μM) it was 0.97; in assay [2] (AVPR1A, tracer 1μM) it was 0.96.
For `CC(C)N(CC[C@H](c1ccccc1)c1cc(CCNC(=O)c2ccc(CNC(=O)CCc3ccc4n3[B-](F)(F)[N+]3=C(c5ccc[nH]5)C=CC3=C4)cc2)ccc1O)C(C)C` [Tolterodine-BZ-NB590], the “NanoBRET Fold Response” value in assay [1] (OPRM1, tracer 0.1μM) turned out to be 0.95; in assay [1] (OPRM1, tracer 1μM), 0.93; in assay [2] (AVPR1A, tracer 0.1μM), 1.15; in assay [2] (AVPR1A, tracer 1μM), 1.07.
With `O=C(CCc1ccc2n1[B-](F)(F)[N+]1=C(c3ccc[nH]3)C=CC1=C2)NCCOCCOCCNC(=O)OCCOCCN1CCN(C2=Nc3ccccc3Sc3ccccc32)CC1` [Quetiapine-a-2-NB590], the “NanoBRET Fold Response” value in assay [1] (OPRM1, tracer 0.1μM) stood at 0.84; in assay [1] (OPRM1, tracer 1μM) it was 0.89; in assay [2] (AVPR1A, tracer 0.1μM) it was 1.02; in assay [2] (AVPR1A, tracer 1μM), 1.00.
Regarding `CN1CCN(C2=Nc3cc(Cl)ccc3Nc3ccc(CNC(=O)CCOCCOCCOCCOCCNC(=O)CCc4ccc5n4[B-](F)(F)[N+]4=C(c6ccc[nH]6)C=CC4=C5)cc32)CC1` [Clozapine-b-2-NB590], the “NanoBRET Fold Response” value in assay [1] (OPRM1, 0.1μM tracer) turned out to be 0.96; in assay [1] (OPRM1, 1μM tracer), 0.86; in assay [2] (AVPR1A, 0.1μM tracer) it was 1.04; in assay [2] (AVPR1A, 1μM tracer), 0.98.
For `CC(C)N(CC[C@H](c1ccccc1)c1cc(CCNC(=O)CCOCCOCCOCCOCCNC(=O)CCc2ccc3n2[B-](F)(F)[N+]2=C(c4ccc[nH]4)C=CC2=C3)ccc1O)C(C)C` [Tolterodine-2-NB590], the “NanoBRET Fold Response” value in assay [1] (OPRM1, tracer 0.1μM) is given as 1.23; in assay [1] (OPRM1, tracer 1μM), 1.10; in assay [2] (AVPR1A, tracer 0.1μM), 0.91; in assay [2] (AVPR1A, tracer 1μM), 1.03.
Turning to `CN(C)CCC=C1c2ccccc2CCc2ccc(C(=O)NCCNC(=O)CCOCCOCCOCCOCCNC(=O)CCc3ccc4n3[B-](F)(F)[N+]3=C(c5ccc[nH]5)C=CC3=C4)cc21` [Amitriptyline-a-2-NB590], the “NanoBRET Fold Response” value in assay [1] (tracer at 0.1μM) turned out to be 0.95; in assay [1] (tracer at 1μM), 1.10; in assay [2] (tracer at 0.1μM), 0.93; in assay [2] (tracer at 1μM) it was 1.11.
`Cc1cc2c(s1)Nc1ccccc1N=C2N1CCN(CCCNC(=O)CCOCCOCCOCCOCCNC(=O)CCc2ccc3n2[B-](F)(F)[N+]2=C(c4ccc[nH]4)C=CC2=C3)CC1` [Olanzapine-a-2-NB590]: the “NanoBRET Fold Response” value was 0.96 in assay [1] (OPRM1, tracer 0.1μM); 1.08 in assay [1] (OPRM1, tracer 1μM); 1.11 in assay [2] (AVPR1A, tracer 0.1μM); 1.16 in assay [2] (AVPR1A, tracer 1μM).
